Earlier results, collected in patent US6777561B1, “Compounds” (AstraZeneca Canada Inc., priority 1998, dated 2004).

Tests used:
[1] = background statement on non-peptidic δ antagonists
δ receptor = details: background statement on non-peptidic δ antagonists

## Oc1ccc2c3c1O[C@H]1c4[nH]c5ccccc5c4C[C@@]4(O)[C@@H](C2)N(CC2CC2)CC[C@]314 [naltrindole]
[1]
  analgesic activity: no analgesic activity
δ receptor
  selectivity for the δ receptor vs. μ receptor binding: < 10 fold
